Reference: patent US12162893B2 (Erasca, Inc., priority 2020, dated 2024)

molecular target: T1, mutant G12C K-RAS (Homo sapiens, UniProt P01116, G12C); assay: covalent adduct formation (CAF) with mutant G12C K-RAS; format: binding; conditions: Table 1, Pyrimidone Core-Morpholine Unsubstituted; after 60 minutes at 10 micromolar
T1 construct: made in house; host or cells: E. coli BL21
Method: Embodiments disclosed herein are further illustrated by the following examples in Tables 1-4 and the Examples hereinbelow. The Tables indicate the compound number, structure, the observed mass spectral molecular weight peak, and covalent adduct formation (CAF) with a mutant G12C K-RAS after 60 minutes at a concentration of 10 micromolar.

In the case of `C=CC(=O)N1C[C@H](C)N(c2nc(=O)n3c4c(c(-c5ccc(F)c(Cl)c5)ccc24)OCC3)C[C@H]1C` [Example 12, 7-((2S,5R)-4-acryloyl-2,5-dimethylpiperazin-1-yl)-10-(3-chloro-4-fluorophenyl)-2H-[1,4]oxazino[2,3,4-ij]quinazolin-5(3H)-one], the “% CAF (60 min)” value is reported as 0%.

same assay, conditions: Table 2, Pyrimidone Core-Morpholine Substituted; after 60 minutes at 10 micromolar

`C=CC(=O)N1C[C@H](C)N(c2nc(=O)n3c4c(c(-c5c(O)cccc5F)c(Cl)cc24)OC[C@H]3CO)C[C@H]1C` [Example 32, (3R,10R)-7-((2S,5R)-4-acryloyl-2,5-dimethylpiperazin-1-yl)-9-chloro-10-(2-fluoro-6-hydroxyphenyl)-3-(hydroxymethyl)-2H-[1,4]oxazino[2,3,4-ij]quinazolin-5(3H)-one] was tested, and the “% CAF (60 min)” value was 0%.

same assay, conditions: Table 6; 10 μM, 1 h

First: C=CC(=O)N1C[C@H](C)N(c2nc(=O)n3c4c(c(-c5ccc(F)cc5F)c(Cl)cc24)OC[C@H]3CO[C@H]2CCN(C)C2)C[C@H]1C [Example 335, (3R)-7-((2S,5R)-4-acryloyl-2,5-dimethylpiperazin-1-yl)-9-chloro-10-(2,4-difluorophenyl)-3-((((S)-1-methylpyrrolidin-3-yl)oxy)methyl)-2H-[1,4]oxazino[2,3,4-ij]quinazolin-5(3H)-one]
Second: C=CC(=O)N1C[C@H](C)N(c2nc(=O)n3c4c(c(-c5ccc(F)cc5F)c(Cl)cc24)OC[C@H]3CC2CCN(C)CC2)C[C@H]1C [Example 288, (3R)-7-((2S,5R)-4-acryloyl-2,5-dimethylpiperazin-1-yl)-9-chloro-10-(2,4-difluorophenyl)-3-((1-methylpiperidin-4-yl)methyl)-2H-[1,4]oxazino[2,3,4-ij]quinazolin-5(3H)-one]
The “% CAF @ 10 μM,1 h” value of the first is lower: 54.6% for the first, 95.9% for the second.

First: C=CC(=O)N1C[C@H](C)N(c2nc(=O)n3c4c(c(-c5c(O)cccc5F)c(Cl)cc24)OC[C@@H]3Cn2cccn2)C[C@H]1C (atropisomer, axis not shown) [Example 243, (3S,10S)-3-((1H-pyrazol-1-yl)methyl)-7-((2S,5R)-4-acryloyl-2,5-dimethylpiperazin-1-yl)-9-chloro-10-(2-fluoro-6-hydroxyphenyl)-2H-[1,4]oxazino[2,3,4-ij]quinazolin-5(3H)-one]
Second: C=CC(=O)N1C[C@H](C)N(c2nc(=O)n3c4c(c(-c5c(O)cccc5F)c(Cl)cc24)OC[C@H]3Cn2cccn2)C[C@H]1C (atropisomer, axis not shown) [Example 246, (3R,10S)-3-((1H-pyrazol-1-yl)methyl)-7-((2S,5R)-4-acryloyl-2,5-dimethylpiperazin-1-yl)-9-chloro-10-(2-fluoro-6-hydroxyphenyl)-2H-[1,4]oxazino[2,3,4-ij]quinazolin-5(3H)-one]
The “% CAF @ 10 μM,1 h” value of the first is lower: 80.6% for the first, 97.4% for the second.

First: C=CC(=O)N1C[C@H](C)N(c2nc(=O)n3c4c(c(-c5ccc(F)cc5F)c(Cl)cc24)OC[C@@H]3CN2C[C@H]3CC[C@@H](C2)N3C2COC2)C[C@H]1C [Example 290, (3S)-7-((2S,5R)-4-acryloyl-2,5-dimethylpiperazin-1-yl)-9-chloro-10-(2,4-difluorophenyl)-3-(((1R,5S)-8-(oxetan-3-yl)-3,8-diazabicyclo[3.2.1]octan-3-yl)methyl)-2H-[1,4]oxazino[2,3,4-ij]quinazolin-5(3H)-one]
Second: C=CC(=O)N1C[C@H](C)N(c2nc(=O)n3c4c(c(-c5ccc(F)cc5F)c(Cl)cc24)OC[C@H]3CN2CCC2)C[C@H]1C [Example 233, (3R)-7-((2S,5R)-4-acryloyl-2,5-dimethylpiperazin-1-yl)-3-(azetidin-1-ylmethyl)-9-chloro-10-(2,4-difluorophenyl)-2H-[1,4]oxazino[2,3,4-ij]quinazolin-5(3H)-one]
The “% CAF @ 10 μM,1 h” value of the first is higher: 92.6% for the first, 76% for the second.

Compared with `C=CC(=O)N1C[C@H](C)N(c2nc(=O)n3c4c(c(-c5cccc6ccccc56)c(Cl)cc24)OC[C@@H]3CN2CCN(C)CC2)C[C@H]1C` (atropisomer, axis not shown) [Example 308, (3S,10S)-7-((2S,5R)-4-acryloyl-2,5-dimethylpiperazin-1-yl)-9-chloro-3-((4-methylpiperazin-1-yl)methyl)-10-(naphthalen-1-yl)-2,3-dihydro-5H-[1,4]oxazino[2,3,4-ij]quinazolin-5-one], `C=CC(=O)N1C[C@H](C)N(c2nc(=O)n3c4c(c(-c5ccc(F)cc5F)c(Cl)cc24)OC[C@H]3CN2CCS(=O)(=O)CC2)C[C@H]1C` [Example 268, (3R)-7-((2S,5R)-4-acryloyl-2,5-dimethylpiperazin-1-yl)-9-chloro-10-(2,4-difluorophenyl)-3-((1,1-dioxidothiomorpholino)methyl)-2H-[1,4]oxazino[2,3,4-ij]quinazolin-5(3H)-one] is higher in “% CAF @ 10 μM,1 h” value: 22.8% for the first, 68% for the second.

Going from `C=CC(=O)N1C[C@H](C)N(c2nc(=O)n3c4c(c(-c5ccc(F)cc5F)c(Cl)cc24)OC[C@H]3CCCN2CC[C@H](F)C2)C[C@H]1C` [Example 330, (3R)-7-((2S,5R)-4-acryloyl-2,5-dimethylpiperazin-1-yl)-9-chloro-10-(2,4-difluorophenyl)-3-(3-((S)-3-fluoropyrrolidin-1-yl)propyl)-2,3-dihydro-5H-[1,4]oxazino[2,3,4-ij]quinazolin-5-one] to `C=CC(=O)N1C[C@H](C)N(c2nc(=O)n3c4c(c(-c5ccc(F)cc5F)c(Cl)cc24)OC[C@H]3CCCN2CCS(=O)(=O)CC2)C[C@H]1C` [Example 253, (3R)-7-((2S,5R)-4-acryloyl-2,5-dimethylpiperazin-1-yl)-9-chloro-10-(2,4-difluorophenyl)-3-(3-(1,1-dioxidothiomorpholino)propyl)-2,3-dihydro-5H-[1,4]oxazino[2,3,4-ij]quinazolin-5-one], the “% CAF @ 10 μM,1 h” value falls from 91.7% to 87.6%.

Compared with `C=CC(=O)N1CCN(c2nc(=O)n3c4c(c(-c5c(O)cccc5F)c(Cl)cc24)OC[C@@H]3CN2CCC(F)(F)C2)[C@@H](C)C1` (atropisomer, axis not shown) [Example 229, (3S,10R)-7-((S)-4-acryloyl-2-methylpiperazin-1-yl)-9-chloro-3-((3,3-difluoropyrrolidin-1-yl)methyl)-10-(2-fluoro-6-hydroxyphenyl)-2,3-dihydro-5H-[1,4]oxazino[2,3,4-ij]quinazolin-5-one], `C=CC(=O)N1CCN(c2nc(=O)n3c4c(c(-c5c(O)cccc5F)c(Cl)cc24)OC[C@H]3CN2CCC(F)(F)C2)[C@@H](C)C1` (atropisomer, axis not shown) [Example 227, (3R,10R)-7-((S)-4-acryloyl-2-methylpiperazin-1-yl)-9-chloro-3-((3,3-difluoropyrrolidin-1-yl)methyl)-10-(2-fluoro-6-hydroxyphenyl)-2,3-dihydro-5H-[1,4]oxazino[2,3,4-ij]quinazolin-5-one] is lower in “% CAF @ 10 μM,1 h” value: 1.6% for the first, 0% for the second.

Going from `C=CC(=O)N1C[C@H](C)N(c2nc(=O)n3c4c(c(-c5cccc6ccccc56)c(Cl)cc24)OC[C@@H]3CN2CCN(C)CC2)C[C@H]1C` (atropisomer, axis not shown) [Example 309, (3S,10R)-7-((2S,5R)-4-acryloyl-2,5-dimethylpiperazin-1-yl)-9-chloro-3-((4-methylpiperazin-1-yl)methyl)-10-(naphthalen-1-yl)-2,3-dihydro-5H-[1,4]oxazino[2,3,4-ij]quinazolin-5-one] to `C=CC(=O)N1C[C@H](C)N(c2nc(=O)n3c4c(c(-c5ccc(F)cc5F)c(Cl)cc24)OC[C@@H]3CCCN2CCS(=O)(=O)CC2)C[C@H]1C` [Example 255, (3S)-7-((2S,5R)-4-acryloyl-2,5-dimethylpiperazin-1-yl)-9-chloro-10-(2,4-difluorophenyl)-3-(3-(1,1-dioxidothiomorpholino)propyl)-2,3-dihydro-5H-[1,4]oxazino[2,3,4-ij]quinazolin-5-one], the “% CAF @ 10 μM,1 h” value falls from 94.4% to 86.8%.

Compared with `C=CC(=O)N1C[C@H](C)N(c2nc(=O)n3c4c(c(-c5c(C)ccc6cnn(C)c56)ccc24)OCC3)C[C@H]1C` [Example 194, 7-((2S,5R)-4-acryloyl-2,5-dimethylpiperazin-1-yl)-10-(1,6-dimethyl-1H-indazol-7-yl)-2,3-dihydro-5H-[1,4]oxazino[2,3,4-ij]quinazolin-5-one], `C=CC(=O)N1CCN(c2nc(=O)n3c4c(c(-c5ccc(F)cc5F)c(Cl)cc24)OCC3)[C@@H](C)C1` [Example 275, 7-((S)-4-acryloyl-2-methylpiperazin-1-yl)-9 chloro-10-(2,4-difluorophenyl)-2,3-dihydro-5H-[1,4]oxazino[2,3,4-ij]quinazolin-5-one] is higher in “% CAF @ 10 μM,1 h” value: 2.5% for the first, 89.6% for the second.

First: C=CC(=O)N1C[C@H](C)N(c2nc(=O)n3c4c(c(-c5ccc(F)cc5F)c(Cl)cc24)OC[C@@H]3COC[C@H]2CCCN2C)C[C@H]1C [Example 277, (3S)-7-((2S,5R)-4-acryloyl-2,5-dimethylpiperazin-1-yl)-9-chloro-10-(2,4-difluorophenyl)-3-((((R)-1-methylpyrrolidin-2-yl)methoxy)methyl)-2H-[1,4]oxazino[2,3,4-ij]quinazolin-5(3H)-one]
Second: C=CC(=O)N1C[C@H](C)N(c2nc(=O)n3c4c(c(-c5ccc(F)cc5F)c(C5CC5)cc24)OC[C@H]3CCCN2C[C@@H]3C[C@H]2CO3)C[C@H]1C [Example 323, (3R)-3-(3-((1S,4S)-2-oxa-5-azabicyclo[2.2.1]heptan-5-yl)propyl)-7-((2S,5R)-4-acryloyl-2,5-dimethylpiperazin-1-yl)-9-cyclopropyl-10-(2,4-difluorophenyl)-2,3-dihydro-5H-[1,4]oxazino[2,3,4-ij]quinazolin-5-one]
The “% CAF @ 10 μM,1 h” value of the first is lower: 76.9% for the first, 81.1% for the second.

`C=CC(=O)N1C[C@H](C)N(c2nc(=O)n3c4c(c(-c5c(O)cccc5F)c(Cl)cc24)OC[C@@H]3Cn2ccnc2)C[C@H]1C` (atropisomer, axis not shown) [Example 248, (3S)-3-((1H-imidazol-1-yl)methyl)-7-((2S,5R)-4-acryloyl-2,5-dimethylpiperazin-1-yl)-9-chloro-10-(2-fluoro-6-hydroxyphenyl)-2H-[1,4]oxazino[2,3,4-ij]quinazolin-5(3H)-one] was tested, and the “% CAF @ 10 μM,1 h” value was 2.3%.
